Assay [1] concerns the target T1, Y1 receptor (Homo sapiens, UniProt P25929).
T1 sequence (P25929 1-384): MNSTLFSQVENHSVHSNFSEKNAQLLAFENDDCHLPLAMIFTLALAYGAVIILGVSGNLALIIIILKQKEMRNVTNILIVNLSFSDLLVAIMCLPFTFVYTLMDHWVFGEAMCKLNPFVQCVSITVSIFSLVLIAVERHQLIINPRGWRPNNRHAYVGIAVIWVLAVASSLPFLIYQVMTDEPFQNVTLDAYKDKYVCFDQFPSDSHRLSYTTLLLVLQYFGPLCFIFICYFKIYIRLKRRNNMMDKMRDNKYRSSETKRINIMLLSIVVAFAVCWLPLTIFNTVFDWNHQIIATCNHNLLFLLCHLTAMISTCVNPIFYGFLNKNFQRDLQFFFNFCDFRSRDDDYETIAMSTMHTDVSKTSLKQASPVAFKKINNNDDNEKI
To be noted: Table 1, rank orders from published reports; cited from earlier work.

The target of assay [2] is T2, human hp25a (Y4) receptor (Homo sapiens, UniProt P50391).
T2 construct: The entire coding region of hp25a (1127 bp); expressed in transfected cells; host or cells: COS-7
T2 sequence (P50391 whole entry): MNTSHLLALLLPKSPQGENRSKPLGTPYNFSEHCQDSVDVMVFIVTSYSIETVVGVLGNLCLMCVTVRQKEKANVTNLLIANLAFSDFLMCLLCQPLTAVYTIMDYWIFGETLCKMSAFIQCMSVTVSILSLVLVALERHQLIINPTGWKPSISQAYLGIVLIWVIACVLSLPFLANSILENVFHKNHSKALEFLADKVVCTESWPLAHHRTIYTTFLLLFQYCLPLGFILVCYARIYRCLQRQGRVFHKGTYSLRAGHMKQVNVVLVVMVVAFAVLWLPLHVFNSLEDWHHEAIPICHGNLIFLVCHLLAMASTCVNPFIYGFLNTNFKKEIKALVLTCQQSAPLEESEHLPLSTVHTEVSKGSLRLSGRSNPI
Briefly: Competitive displacement / binding of 125I-PYY, membranes of COS-7 cells transiently expressing hp25a (human Y4) receptors.
Experimental: (§1) Cell culture: COS-7 cells were grown on 150 mm plates (Corning) in D-MEM with supplements (Dulbecco's Modified Eagle Medium with 10% bovine calf serum, 2 mM glutamine, 100 units/ml penicillin/80 units/ml streptomycin) at 37° C., 5% CO2.
Membrane Harvest: Membranes were harvested from COS-7 cells 48 hours after transfection and from SK-N-Be(2) seven days after splitting. […] Large particles and debris were cleared by low speed centrifugation (200×g, 10 min, 4° C.).
(§2) Radioligand Binding to Membrane Suspensions: Membrane suspensions were diluted in binding buffer supplemented with 0.1% bovine serum albumin and 0.1% bacitracin to yield an optimal membrane protein concentration: ˜0.02 mg/ml for human Y1 receptors, ˜0.015 mg/ml for hp25a receptors, and ˜0.25 mg/ml for SK-N-Be(2). […] Incubations were terminated by filtration over Whatman GF/C filters (pre-coated with 0.5% polyethyleneimine and air-dried before use). […] Specific binding in time course and competition studies was typically 80%; most non-specific binding was associated with the filter.

In assay [3] the target is T1, Y1 receptor. Briefly: Competitive displacement / binding of 125I-PYY, membranes of COS-7 cells transiently expressing human Y1 receptors. Set-up: expressed in transfected cells; host or cells: COS-7.
Experimental: as §1
Membrane Harvest: Membranes were harvested from COS-7 cells 48 hours after transfection and from SK-N-Be(2) seven days after splitting.
as §2
The target of a further assay is PP receptor. Particulars: Table 1, rank orders from published reports; cited from earlier work.
The target of the next assay is Y3 receptor. To be noted: Table 1, rank orders from published reports; cited from earlier work.
The next assay relates to PYY-preferring receptor. Particulars: Laburthe et al., 1986, 1990; cited from earlier work.
[4] abbreviates: N-terminal deletion of porcine NPY.

This is an account of results in patent publication US6913892B1, “Method of obtaining compositions comprising Y4 specific compounds” (H. Lundbeck A/S, priority 1993, dated 2005).

With “NPY2-36: NPY fragment 2-36, species not stated (Table 1)”, the “Affinity (−pKi or −pEC50), Y1” value with Y1 receptor [1] is listed as 9 to 8.
Consider “NPY13-36: NPY carboxyl-terminal fragment 13-36, species not stated; b153 folds follow porcine data”, for which the “decrease in affinity compared with full length parent peptide, hp25a” value in assay [2] (setting [4]) was found to be 33 fold. For the same substance, the “decrease in affinity compared with full length parent peptide, human Y1 receptors” value in the assay with Y1 receptor [3] (setting [4]) was 1000 fold.
For Neuropeptide Y [NPY], the “Affinity (−pKi or −pEC50), PP” value on PP receptor is recorded as less than 6. In addition, the “Affinity (−pKi or −pEC50), Y3” value on Y3 receptor is recorded as 10 to 9.
As for “PYY: peptide YY, species not stated at the place”, in the assay on PYY-preferring receptor, the “higher affinity for PYY than for NPY” value is reported as 5-10 fold. On Y3 receptor, the “Affinity (−pKi or −pEC50), Y3” value is less than 6.
Consider “[LEU^31, Pro^34]NPY: analog of NPY modified at residues 31 and 34, species not stated (Table 1)”, for which, on PP receptor, the “Affinity (−pKi or −pEC50), PP” value is on record as 9 to 8.
Take “[Pro^34]NPY: NPY analog with Pro34 (Table 1)”: the “Affinity (−pKi or −pEC50), Y3” value at Y3 receptor was 9 to 8.
^125I-PYY: the “observed association rate (Kobs)” value worked out at 0.12 ± 0.02 min⁻¹ in assay [2] (hp25a, 0.06 nM 125I-PYY) and 0.06 ± 0.02 min⁻¹ on Y1 receptor [3] (human Y1 in COS-7).
